The source of these data is publication PMC6494845 (Scientific Reports, 2019).

On the set-up of data set [1]: method as in PMID 17004725. The settings on record: normal mice; cited from earlier work.
The subject of data set [2] is Aβ aggregates. The arrangement: method as in PMID 17004725. The settings on record: compared with curcumin; cited from earlier work.
Details of data set [3]: method as in PMID 19807070. To be noted: cited from earlier work.
Data set [4] addresses T1, Aβ(1–42) aggregates (Homo sapiens, UniProt P05067).
T1 construct: β-Amyloid(1–42) peptide was purchased from Bachem; purchased Bachem (Torrance, CA, USA)
Nature of the data set: In vitro binding assay using Aβ(1–42) aggregates (intrinsic fluorescence of the ligands). To be noted: Aβ(1–42) aggregates 1 μM, PBS, 37 °C, 1 h, ligand fluorescence. Here is the method:
Binding constants of the ligands for Aβ(1–42) aggregates were determined using the intrinsic fluorescence of the ligands. The binding constant of CRANAD-2 was also measured for comparison. […] Considering the Kd values and feasibility of ^18F-labeling of all the ligands, ligand 2 was selected for further in vitro and in vivo studies.
Aβ(1–42) aggregates were prepared as described in the literature. Briefly, Aβ(1–42) peptide (200 μM) was dissolved in PBS and stirred gently at 37 °C for 2 d. The Aβ(1–42) aggregate formation was confirmed by thioflavin-T fluorescence assay. In vitro binding assays were carried out using the methods described in the literature with some modifications. Various concentrations of ligands (10–400 nM) were dissolved in DMSO, which were then added to PBS solutions of Aβ(1–42) aggregates (1 μM) charged in 96-well black clear-bottom plates. The final concentration of DMSO in a total volume of solution was 1%. Non-specific binding was determined in the absence of Aβ(1–42) aggregates. The reaction mixtures were incubated at 37 °C for 1 h, after which the fluorescence spectra of the ligands were obtained (excitation 510–560 nm and emission 590–660 nm) using a monochromator multimode microplate reader. All experiments were performed in triplicate. Kd values were determined using GraphPad Prism software 5.

The target of data set [5] is Aβ(1–40) aggregates. More on the design: method as in PMID 19807070. The settings on record: cited from earlier work.
On the set-up of data set [6]: method as in PMID 19807070. The settings on record: cited from earlier work. This is another data set of the same source.
Details of data set [7]: method as in PMID 9278892. The settings on record: cell culture medium containing 10% fetal calf serum and human blood, at 1 h; cited from earlier work.
Data set [8] has as its system HIV-1 protease. The arrangement: method as in PMID 8087563. The settings on record: cited from earlier work.

Values joined by “and” are separate entries in the source; they are usually repeats but may differ in a detail not shown here. Identical values can stand only once.

T1 sequence (P05067 672-713): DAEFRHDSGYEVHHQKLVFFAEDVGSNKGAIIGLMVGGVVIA

As to `COc1cc(/C=C/C(=O)CC(=O)/C=C/c2ccc(OCCC[18F])c(OC)c2)ccc1O` [4′-O-[^18F]fluoropropylcurcumin], in data set [1], the brain permeability result is on record as “poor brain permeability”.
With `COc1cc(/C=C/C(=O)CC(=O)/C=C/c2ccc(OCCCF)c(OC)c2)ccc1O` [4′-O-fluoropropylcurcumin], the “in vitro binding affinity for Aβ aggregates” value in data set [2] is given as “much higher than that of curcumin”.
The term Kd denotes the equilibrium constant for the complex coming apart. Take `CN(C)c1ccc(/C=C/C2=CC(/C=C/c3ccc(N(C)C)cc3)=[O+][B-](F)(F)O2)cc1` [CRANAD-2]: in data set [3], the “blue shift when binding to the Aβ aggregates” value is reported as 90 nm. Besides, the emission in data set [3] (in methanol) is on record as 760 nm. For the same compound, the Kd in data set [4] was 19.4 nM; in data set [5] it was 38.7 nM and 38 nM. Moreover, the stability in serum entry in data set [6] is given as “stability in the serum”.
What is called IC50 is the midpoint of a concentration-inhibition curve. curcumin: in data set [3] (in methanol), the emission was 560 nm and the excitation was 510 nm. Also, the “stability (% remaining)” value in data set [7] was more than 80%. In data set [8], the IC50 was 100000 nM.
